Measurements from patent US10450317B2, “Notch pathway signaling inhibitor compounds” (Eli Lilly and Company, priority 2015, dated 2019).
Marks after values point to notes of the source that are not given here.

Legend:
[1] = tested on: Atoh1; assay: Hair cell marker induction in whole otic capsule culture (RT-PCR); type: cell-based, mice; conditions: otic capsule explants, 48 hours in culture, vs vehicle-only control, n of 12-17
Source text: The otic capsule (otic capsule explant), comprised of the cochlear bony labrinth and vestibular systems, is dissected from 1 to 4 day-old postnatal mice (transgenic strain: Atoh 1-driven nGFP; Lumpkin E A, et al., Gene Expr. Patterns, 2003, 3(4): 389-95) of both sexes generally according to the method described in Parker et al., Journal of Visualized Experiments, 2010, (36), e1685. The entire otic capsule is isolated from the parietal bone and maintained ex-vivo in a roller tube culture system for up to 3 days in medium containing DMEM, high glucose, 5% FBS, 5% horse serum, 1 μg/ml ampicillin.
The otic capsule explant is used to evaluate test compound, in various delivery vehicles, penetrance into the inner ear. Tests are carried out with compositions of Compound 1, Isomer 2, (7.2 mM) in various delivery vehicles. […]
The composition is allowed to remain for 1-2 hours then washed away with culture medium. […] The cochlea is broken open and the entire organ of Corti is then dissected out and prepared for quantitative RT-PCR to measure Atoh1 hair cell marker expression levels (as described in organ of Corti explant assay, above). […] Up-regulation of Atoh1 by Compound 1, Isomer 2, in all tested compositions (2-3 fold, n of 12-17) is measured in comparison to vehicle-only control-treated otic capsule explants after 48 hours in culture.

[2] = tested on: hair cell markers Atoh1, Pou4f3, Myo7A in gentamicin-damaged organ of Corti explants; assay: Organ of Corti explant, gene expression analysis after ototoxic (gentamicin) damage; type: cell-based, mice; conditions: 5 μM after gentamicin (100 μM) damage, n = 11
Description: A variation of the organ of Corti organotypic explant culture is used to model hair cell regeneration in response to subsequent compound treatment after ototoxic damage. This damage model is carried out according to the method described in Korrapati et al., PLOSOne, 2013, 8(8), e73276 where a 95% reduction in mid-apical hair cells was reported. On Day 0, to damage and selectively kill hair cells within the organ of Corti explant, aminoglycoside treatment (gentamicin (100 μM)) is added for 18-24 hours. On Day 1, gentamicin is removed and treatment with Compound 1, Isomer 2 and Compound 2, Isomer 2 at 5 μM began. Explant culture continues for 4 days total at which point the culture is prepared for the qRT-PCR protocol described above. Visible confirmation of gentamicin-induced damage is easily observed between cultures treated with negative control compounds. However, quantitative measurement for the response to Compound 1, Isomer 2 and Compound 2, Isomer 2 treatment following ototoxic damage obtained by qRT-PCR measured increases in gene expression for prosensory hair cell markers Atoh1 and Pou4f3 and the hair cell marker Myo7A.
Data represent the percent increase in gene expression relative to negative control-treated samples with the gentamicin-induced hair cell damage. (*, significant difference from negative control, p<0.05)

Compound | Up-regulation of Atoh1 in all tested compositions [1] | % Induction Over Control-treated Damaged Organ of Corti, Atoh1 (Mean ± SEM) [2] | % Induction Over Control-treated Damaged Organ of Corti, Myo7A (Mean ± SEM) [2] | % Induction Over Control-treated Damaged Organ of Corti, Pou4f3 (Mean ± SEM) [2]
COc1ccc2c(c1)N1CCC(C)(C)C1=CC(=O)C2NC(=O)[C@H](C)NC(=O)CCC(F)(F)F (single isomer, unassigned) [Compound 1, Isomer 2] | 2-3 fold | 242 ± 16; % | 102 ± 18; 0.0522% | 114 ± 25; <0.05* %
C[C@H](NC(=O)CCC(F)(F)F)C(=O)NC1C(=O)C=C2N(CCC2(C)C)c2ncccc21 (single isomer, unassigned) [Compound 2, Isomer 2] |  | 169 ± 24; <0.05* % | 52 ± 15; not signif. % | 28 ± 11; 0.0633%
